Values joined by “and” are separate entries in the source; they are usually repeats but may differ in a detail not shown here. Identical values can stand only once. “Also recorded” adds a separate entry of the source.
What was measured:
[1] = tested on: CD-1 mice; experiment: Leg extension reflex test; assay type: in vivo
Protocol: (§1) Five-month old male CD-1 mice (30.1-35.7 g, 7.5 cm - 8.8 cm) were purchased from Charles River (Wilmington, MA). Adult mice were chosen to mimic the mean age of onset of ALS-PDC (Kurland, 1988; Kurland et al., 1994). Thirty mice for the SG study were randomly divided into 2 groups (14 control and 16 experimental animals). All animals were housed singly in a virus-free barrier facility in a room maintained at 22°C under a 12 hour light/dark cycle. The mice were provided ad libitum access to food and water.
The synthetic SG was mixed with finely ground Purina Chow mouse pellets (Mouse Diet™, Purina) to create the experimental pellets with a SG content of 1000 µg per pellet. Dry materials were blended with a sterile silicon spatula. For every 5 g of standard feed, 2.5 mL of doubly-distilled water (dd)H2O was added and the dough was kneaded and round up into pellets. A single sterol glucoside containing pellet was placed in the feeding tray each morning before the addition of regular mouse chow (ad libitum). […] SG feeding was conducted daily for 15 weeks and mice were behaviorally monitored until sacrifice at 35 weeks (time point 1) or 52 weeks (time point 2).
Leg extension reflex test: The leg extension reflex test was used as a measure of motor neuron dysfunction (Barneoud and Curet, 1999). […] The leg extension reflex was measured three times per week in each animal. […]

[2] = tested on: CD-1 mice; experiment: Wire hang test; assay type: in vivo
Protocol: as §1
(§2) The synthetic SG was mixed with finely ground Purina Chow mouse pellets (Mouse Diet™, Purina) to create the experimental pellets with a SG content of 1000 µg per pellet. Dry materials were blended with a sterile silicon spatula. For every 5 g of standard feed, 2.5 mL of doubly-distilled water (dd)H2O was added and the dough was kneaded and round up into pellets. A single sterol glucoside containing pellet was placed in the feeding tray each morning before the addition of regular mouse chow (ad libitum). All experimental pellets were entirely consumed by the mice each day. Control mice were fed standard mouse chow pellets of identical weight with no additives. SG feeding was conducted daily for 15 weeks and mice were behaviorally monitored until sacrifice at 35 weeks (time point 1) or 52 weeks (time point 2).
Wire hang: Neuromuscular strength was tested by the wire hang (or hanging wire) test (Wilson et al., 2003d; Wilson et al., 2004c; Wilson et al., 2005; Tabata et al., 2008). Both balance and grip strength are required for a mouse to keep its body suspended (Crawley, 2000). Mice were placed on a wire cage lid elevated 50 cm above a soft landing surface. The latency to fall off the wire (maximum 60 seconds) (Sango et al., 1996) was measured from the moment the wire apparatus was inverted (180°). Wire hang testing was conducted biweekly.

[3] = tested on: Active Caspase-3; experiment: Active caspase-3 labelling (apoptotic activity); assay type: in vivo, CD-1 mice
Protocol: as §2
(§3) Tissue-mounted slides were processed for fluorescence microscopy as follows: Sections were rinsed in coplin jars for 45 minutes at room temperature (RT) in three changes of PBS. Sections were then incubated at RT for 30 minutes in a blocking permeabilization solution made of 5% normal goat serum (NGS), 5% normal rabbit serum (NRS) or 5% BlokHen II (Aves Labs, Inc., Tigard, OR), 0.05% Triton X-100 and PBS. Subsequently, the blocking solution was tipped off and the slides were rinsed in PBS for 2 minutes. […]

[4] = tested on: Phosphorylated tau aggregates; experiment: Tau immunohistochemistry; assay type: in vivo, CD-1 mice; design: key to Phosphorylated tau aggregates: - = not present; + = present; conditions: for Phosphorylated tau aggregates: SG-fed
Protocol: as §2, §3

[5] = tested on: Phosphorylated TDP-43 aggregates; experiment: TDP-43 immunofluorescence; assay type: in vivo, CD-1 mice; design: key to Phosphorylated TDP-43 aggregates: - = not present; + = present; conditions: for Phosphorylated TDP-43 aggregates: SG-fed
Protocol: as §2
Tissue-mounted slides were processed for fluorescence microscopy as follows: Sections were rinsed in coplin jars for 45 minutes at room temperature (RT) in three changes of PBS. Sections were then incubated at RT for 30 minutes in a blocking permeabilization solution made of 5% normal goat serum (NGS), 5% normal rabbit serum (NRS) or 5% BlokHen II (Aves Labs, Inc., Tigard, OR), 0.05% Triton X-100 and PBS. Subsequently, the blocking solution was tipped off and the slides were rinsed in PBS for 2 minutes. Sections were then incubated overnight in a humidified chamber at 4°C with a PBS buffered solution that contained 1% NGS or 1% NRS, 1% bovine serum albumin (BSA) and one of the following primary antibodies: (a) rabbit anti-human/mouse ATF-3 (H-90) IgG (polyclonal, 1:500; Santa Cruz Biotechnology, Inc., Santa Cruz, CA), (b) anti-activated caspase-3 IgG (monoclonal, 1:250; Chemicon International, Temecula, CA) (see FIGURE 9), (c) goat antihuman/ mouse choline acetyl transferase (ChAT) IgG (polyclonal, 1:100; Chemicon International, Temecula, CA) (see FIGURE 6), (d) rabbit anti-mouse glial fibrillary acidic protein IgG (polyclonal, 1:250; GeneTex Inc., San Antonio, TX) (see FIGURE 7), (e) rabbit antihuman/ mouse ionized calcium binding adaptor molecule 1 (IBA-1) IgG (polyclonal, 1:500; Wako Pure Chemical Industries, Ltd, Richmond, VA), (f) mouse anti-human/mouse clone AT8 PHF-1 Tau (monoclonal, 1:200; Pierce Biotechnology Inc., Rockford, IL), (g) rabbit anti-human/mouse TAR DNA-binding protein 43 (TDP43) (1:100; ProteinTech Group Inc., Chicago, IL) (See FIGURE 14), (h) chicken anti-human/mouse β-tubulin 3 (TuJ1 antigen) (polyclonal, 1:100, Aves Labs, Inc., Tigard, OR), (i) rabbit anti-mouse tyrosine hydroxylase (polyclonal, 1:500, Chemicon International, Temecula, CA or polyclonal 1:1000, Affinity BioReagents, Golden, CO) (FIGURE 10), (j) rabbit anti human/mouse anti-pJunser73 IgG (polyclonal, 1:200; Chemicon International, Temecula, CA), (k) rabbit anti human/mouse anti-HSP-70 IgG (polyclonal, 1:200; Chemicon International, Temecula, CA), or (1) rabbit anti human/mouse anti-HSP-25 IgG (polyclonal, 1:100; Chemicon International, Temecula, CA). In each experiment, additional slides were incubated with the primary antibody and the secondary antibody omitted or with secondary antibody and primary antibody omitted to test for nonspecific staining. Where appropriate, positive control slides (Alzheimer's disease patient entorhinal cortex, obtained from Drs. Claudia Schwab and Patrick McGeer of the Kinsmen Laboratory, University of British Columbia, Vancouver, BC, Canada) were also processed as above for comparison. […]

[6] = SG-fed vs control, time-point 2, 52 wk
[7] = SG-fed group, time-point 2, 52 wk

## CCC(C=CC(C)C1CCC2C3CC=C4CC(OC5OC(CO)C(O)C(O)C5O)CCC4(C)C3CCC12C)C(C)C (centres unmarked) [SG]
[1]; SG-fed animals, soon after 35 weeks / during the study
  Leg extension reflex test performance (score): steady decline in performance; also recorded: decreased
[1]; [6]
  Leg extension: Leg extension* (*p<0.05)
[2]; SG fed mice, control group showed an increase
  increase in the time between inversion of the apparatus and falling: did not
[2]; SG-fed animals, prior to 35 weeks
  Wirehang test performance: decline in performance
[2]; [6]
  Wirehang: Wirehang* (*p<0.05)
[3]; SG-fed group over time, 35 to 52 wk
  Apoptotic cells: Apoptotic cells (SG-fed group over time) (ns)
[3]; SG-fed vs control, 52 weeks (figure legend)
  number of apoptotic cells: did not reach significance
[3]; [6]
  Anti-active caspase 3: (ns)
[4]; [7]
  Phosphorylated tau aggregates, animals affected: 2/8
[4]; SG-fed mice, none in non-treated mice
  Phosphorylated Tau aggregates: induced accumulation of phosphorylated tau; also recorded: observed
[4]; time-point 1, 35 wk
  Phosphorylated tau aggregates: -
[4]; time-point 2, 52 wk
  Phosphorylated tau aggregates: +
[5]; SG-fed animals
  pathologic phosphorylated TDP-43-containing aggregates in the lumbar spinal cord: increased
[5]; SG-fed animals at 35 weeks
  translocation of TDP-43: No abnormal translocation
[5]; [7]
  Phosphorylated TDP-43 aggregates / TDP-43 pathology, animals affected: Two of eight and 2/8
[5]; time-point 1, 35 wk
  Phosphorylated TDP-43 aggregates: -
[5]; time-point 2, 52 wk
  Phosphorylated TDP-43 aggregates: +

Reference: patent EP2181589A1, “Neurotoxic sterol glycosides” (Shaw, Christopher Ariel, priority 2008, dated 2010)
